[ ]: non-standard residue; d: D form. The star is where a group is joined. Decanoyl = CCCCCCCCCC(=O)*; Orn = NCCC[C@H](N)C(=O)O; Dap = NC[C@H](N)C(=O)O
Columns and labels:
Type in all cases: cell-based
HeLa cells [1] = experiment: Cytosolic entry efficiency of NF-labelled peptides by flow cytometry; details: for Cellular Entry Efficiency In 10% FBS: 2 h, relative to CPP12 (100%); for CPP activity compared with CPP1-4 (in words): variant of CPP1-4; for sensitivity to serum concentration: 10% vs 1% FBS, compared with CPP9 or CPP12
Procedure: All of the peptides were labeled with naphthofluorescein (NF) at the Gln side chain through a long, flexible linker, miniPEG-Lys. HeLa cells were treated with 5 μM peptide for 2 h in the presence of 10% FBS and the cytosolic entry of the peptides was quantitated by flow cytometry analysis.
To determine cellular uptake efficiency of the CPPs disclosed herein, HeLa cells were cultured in 12-well plates (1.5×10^5 cells per well) overnight. The cells were incubated for 2 h with […] naphthofluorescein (NF)-labelled peptide in cellular media. At the end of incubation, the cells were washed with DPBS twice, detached from the plate with 0.25% trypsin, diluted into clear DMEM, pelleted at 250 g for 5 min, washed twice with DPBS, resuspended in DPBS, and analyzed on a BD FACS LSR II flow cytometer. For NF-labelled peptides, a 633-nm laser was used for excitation and the fluorescence emission was analyzed in the APC channel. Absolute cellular uptake efficiency was determined by comparing the concentration (via fluorescence intensity) of the CPP in the cytosol to the concentration in the extracellular medium. Relative cellular uptake efficiency was determined by comparing the cytosolic concentration of the CPP to that cytosolic concentration of the control CPP cyclo(FΦRRRRQ).

HeLa cells [2] = experiment: as above; details: for Cellular Entry Efficiency In 1% FBS: relative to CPP12 (100%); for cytosolic entry efficiency: reduced serum concentration (1% FBS), CPP12 most active
HeLa cells [3] = experiment: Cytotoxicity by the MTT assay; details: no label, up to 40 μM concentration
From the text: CPP1-15 (no label) was used as a representative and tested against HeLa cells for potential cytotoxicity by the MTT assay.

HeLa cells [4] = experiment: Cellular entry by live-cell confocal imaging of FITC-labelled peptides; details: 5 μM FITC-labelled peptide, 2 h
Procedure: CPP1-15 and CPP1-20 were labeled with FITC via a miniPEG-Lys linker. HeLa cells were treated with 5 μM peptide for 2 h, washed, and imaged by live-cell confocal imaging. […] Additional experiments are ongoing to further examine their mechanism of cell entry.

[5] = Table 4, 5 μM NF-labelled peptide, 10% FBS
[6] = Table 7, 5 μM NF-labelled peptide, 10% FBS

| Substance | Cellular Entry Efficiency In 10% FBS (HeLa cells [1]; [5]) [%] | Cellular Entry Efficiency In 10% FBS (HeLa cells [1]; [6]) [%] | CPP activity compared with CPP1-4 (in words) (HeLa cells [1]) | Cellular Entry Efficiency In 1% FBS (HeLa cells [2]; Table 4, NF-labelled peptide) [%] | Cellular Entry Efficiency In 1% FBS (HeLa cells [2]; Table 7, NF-labelled peptide) [%] | cytotoxicity (HeLa cells [3]) | cellular entry (confocal imaging) (HeLa cells [4]) | sensitivity to serum concentration (HeLa cells [1]) | cytosolic entry efficiency (HeLa cells [2]) [%] | improvement in activity (HeLa cells [1]; 10% FBS, relative to CPP1-4) [fold] | fold more active than CPP9 and CPP12 (HeLa cells [1]; in the presence of 10% FBS) [fold] | activity, fold higher than CPP1 (HeLa cells [1]; 10% FBS, versus CPP1) [fold] |
| --- | --- | --- | --- | --- | --- | --- | --- | --- | --- | --- | --- | --- |
| cyclo(Dap^DecaRrRrQ) [CPP1-10] | 21 ± 9 | 21 ± 9 | substantially decreased the CPP activity | 24 | 24 |  |  |  |  |  |  |  |
| cyclo(Dap^DecaARRRQ) (cyclo([Dap](Decanoyl)ARRRQ); SMILES CCCCCCCCCC(=O)NC[C@@H]1NC(=O)[C@H](CCC(N)=O)NC(=O)[C@H](CCCNC(=N)N)NC(=O)[C@H](CCCNC(=N)N)NC(=O)[C@H](CCCNC(=N)N)NC(=O)[C@H](C)NC1=O) [CPP1-12] | 26 ± 4 | 26 ± 4 | reduced the CPP activity | 34 | 34 |  |  |  |  |  |  |  |
| cyclo(Lys^DecaRRRRQ) (cyclo(K(Decanoyl)RRRRQ); SMILES CCCCCCCCCC(=O)NCCCC[C@@H]1NC(=O)[C@H](CCC(N)=O)NC(=O)[C@H](CCCNC(=N)N)NC(=O)[C@H](CCCNC(=N)N)NC(=O)[C@H](CCCNC(=N)N)NC(=O)[C@H](CCCNC(=N)N)NC1=O) [CPP1-15] | 76 ± 21 | 76 ± 21 | slightly increased the CPP activity | 44 ± 11 | 44 ± 11 | did not show significant cytotoxicity | entered HeLa cells efficiently | lower sensitivity to serum concentration | 43 |  |  |  |
| cyclo(Dap^DecarRrRQ) [CPP1-11] | 20 ± 6 | 20 ± 6 | substantially decreased the CPP activity | 29 | 29 |  |  |  |  |  |  |  |
| cyclo(Dap^DecaRRRRRQ) (cyclo([Dap](Decanoyl)RRRRRQ); SMILES CCCCCCCCCC(=O)NC[C@@H]1NC(=O)[C@H](CCC(N)=O)NC(=O)[C@H](CCCNC(=N)N)NC(=O)[C@H](CCCNC(=N)N)NC(=O)[C@H](CCCNC(=N)N)NC(=O)[C@H](CCCNC(=N)N)NC(=O)[C@H](CCCNC(=N)N)NC1=O) [CPP1-14] | 12 ± 1 | 12 ± 1 | greatly decreased the CPP activity | 21 | 21 |  |  |  |  |  |  |  |
| cyclo(Dap^DecaRRRAQ) (cyclo([Dap](Decanoyl)RRRAQ); SMILES CCCCCCCCCC(=O)NC[C@@H]1NC(=O)[C@H](CCC(N)=O)NC(=O)[C@H](C)NC(=O)[C@H](CCCNC(=N)N)NC(=O)[C@H](CCCNC(=N)N)NC(=O)[C@H](CCCNC(=N)N)NC1=O) [CPP1-13] | 32 ± 2 | 32 ± 2 | reduced the CPP activity | 33 | 33 |  |  |  |  |  |  |  |
| cyclo(Asp^DecyRRRRQ) (cyclo(DRRRRQ); not fully specified (residue 1); printed as cyclo(Asp^DecyRRRRQ)) [CPP1-20] | 281 ± 59 | 281 ± 59 |  | 94 ± 41 | 94 ± 41 |  | entered HeLa cells efficiently | lower sensitivity to serum concentration | 94 | ~5 | −3 |  |
| cyclo(Orn^DecaRRRRQ) (cyclo([Orn](Decanoyl)RRRRQ); SMILES CCCCCCCCCC(=O)NCCC[C@@H]1NC(=O)[C@H](CCC(N)=O)NC(=O)[C@H](CCCNC(=N)N)NC(=O)[C@H](CCCNC(=N)N)NC(=O)[C@H](CCCNC(=N)N)NC(=O)[C@H](CCCNC(=N)N)NC1=O) [CPP1-17] | 115 ± 32 | 115 ± 32 | slightly increased the CPP activity | 58 ± 22 | 58 ± 22 |  |  | lower sensitivity to serum concentration | 58 |  |  |  |
| cyclo(Dap^DecaRRRQ) (cyclo([Dap](Decanoyl)RRRQ); SMILES CCCCCCCCCC(=O)NC[C@@H]1NC(=O)[C@H](CCC(N)=O)NC(=O)[C@H](CCCNC(=N)N)NC(=O)[C@H](CCCNC(=N)N)NC(=O)[C@H](CCCNC(=N)N)NC1=O) [CPP1-16] | 3.0 ± 0.1 | 3.0 ± 0.1 | greatly decreased the CPP activity | 25 | 25 |  |  |  |  |  |  |  |
| cyclo(FfΦRrRrQ) [CPP12, reference compound] | 100 | 100 |  | 100 | 100 |  |  |  |  |  |  |  |
| cyclo(Dap^DecaRRRRQ) (cyclo([Dap](Decanoyl)RRRRQ); SMILES CCCCCCCCCC(=O)NC[C@@H]1NC(=O)[C@H](CCC(N)=O)NC(=O)[C@H](CCCNC(=N)N)NC(=O)[C@H](CCCNC(=N)N)NC(=O)[C@H](CCCNC(=N)N)NC(=O)[C@H](CCCNC(=N)N)NC1=O) [CPP1-4] | 57 ± 19 | 57 ± 19 |  |  |  |  |  | lower sensitivity to serum concentration | 44 |  |  | 2.5 |
| cyclo(fΦRrRrQ) [CPP9, reference compound] | 94 ± 7 | 94 ± 7 |  | 32 ± 6 | 32 ± 6 |  |  |  | 32 |  |  |  |

— patent publication US11987647B2, “Cyclic cell-penetrating peptides with one or more hydrophobic residues” (Ohio State Innovation Foundation, priority 2018, dated 2024)
